According to US11141413B2, “Method of treating renal cell carcinoma using N-(4-(6,7-dimethoxyquinolin-4-yloxy)phenyl)-N′-(4-fluorophenyl)cyclopropane-1,1-dicarboxamide, (2S)-hydroxybutanedioate” (Exelixis, Inc., priority 2016, dated 2021):

System: bone metastases in advanced RCC patients
Assay: METEOR bone endpoints: bone scan response, skeletal-related events, bone markers
Format: in vivo, human
Conditions: for C-terminal cross-lined telopeptides of type 1 collagen (CTx), median / N-terminal propeptide of type 1 collagen (P1NP), median: patients with bone metastases at baseline; for Bone scan response (BSR) per IRC: patients with bone lesions at baseline by bone scan, BSR = ≥30% decrease in BSLA
Excerpt: The study design in depicted in FIG. 8.3. Clinical outcome measures included PFS, ORR, overall survival (OS), and safety. Exploratory endpoints included bone scan response (BSR) in patients with bone scan lesions at baseline (Brown Nucl Med Commun 2012 33:384), incidence of skeletal-related events (SRE), and changes in bone turnover markers. The subgroup of patients with bone metastases (N=142) was defined by the presence of bone metastases at baseline by CT or MRI per IRC. Bone scan response (BSR) was evaluated for patients who had bone lesions detected by technetium bone scans at baseline (N=178).
Participants were screened via CT or MRI every 8 weeks for the first 12-months post-randomization, and then every 12 weeks thereafter. Technetium bone scans were performed at screening (all patients), every 16 weeks for the first 12 months post-randomization (only in patients with bone lesions at baseline), and then every 23 weeks thereafter. Skeletal-related events (SREs) were assessed and consisted of pathological fractures, spinal cord compression, surgery to bone, and external radiation therapy to bone. Serum bone marker analyses consisted on N-terminal propeptide of type I collagen (PINP), and the bone resorption marker c-terminal cross-lined telopeptides of type I collagen (CTx), which were collected prior to the first dose at week 1, at week 5, and at week 9.
Bone scan responses per IRC in patients with bone scan lesions were performed using computer-assisted detection of bone scan lesions. An IRC was used to quantitate bone scan tumor burden using computer-assisted detection (CAD) to measure lesions and defined criteria for response. Bone scan lesion area (BSLA), which represents the number of pixels with radiotracer uptake above the threshold for normal bone, was also calculated. BSR was defined as greater than or equal to 30% decrease in BSLA.

[1] = patients with an SRE pre-randomization
[2] = prior history of SREs, Pts with Bone Metastases
[3] = prior history of SREs, Pts without Bone Metastases

## COc1cc2nccc(Oc3ccc(NC(=O)C4(C(=O)Nc5ccc(F)cc5)CC4)cc3)c2cc1OC [cabozantinib]
Baseline
  C-terminal cross-lined telopeptides of type 1 collagen (CTx), median: 0.40 µg/L
  N-terminal propeptide of type 1 collagen (P1NP), median: 48.5 µg/L
Pts with Bone Metastases
  Post-Randomization SREs, %: (21) %
  Post-randomization SRE: External radiation therapy to bone, %: (9) %
  Post-randomization SRE: Pathologic fractures, %: (12) %
  Post-randomization SRE: Spinal cord compression, %: (3) %
  Post-randomization SRE: Surgery to bone, %: (8) %
  Time to first SRE, median: 3.45 months
Pts without Bone Metastases
  Post-Randomization SREs, %: (9) %
  Post-randomization SRE: External radiation therapy to bone, %: (7) %
  Post-randomization SRE: Pathologic fractures, %: (3) %
  Post-randomization SRE: Spinal cord compression, %: (1) %
  Post-randomization SRE: Surgery to bone, %: (2) %
  Time to first SRE, median: 3.93 months
Week 5
  C-terminal cross-lined telopeptides of type 1 collagen (CTx), median: 0.19 µg/L
  N-terminal propeptide of type 1 collagen (P1NP), median: 38.9 µg/L
Cabozantinib vs everolimus
  Reductions in bone markers: greater
[1]
  Cases of spinal cord compression: 0
  Incidence of post-randomization SREs: 16%
  Bone scan response (BSR) per IRC: 18%
Listed as Cabozantinib
  Bone scan response (BSR) per IRC: 18 (11, 27) %
[2]
  Post-randomization SRE: External radiation therapy to bone, %: (9) %
  Post-randomization SRE: Pathologic fractures, %: (14) %
  Post-randomization SRE: Surgery to bone, %: (9) %
  SREs in patients with a prior history of SREs, %: (23) %
  Time to first SRE, median: 3.25 months
[3]
  Post-randomization SRE: External radiation therapy to bone, %: (8) %
  Post-randomization SRE: Pathologic fractures, %: (6) %
  Post-randomization SRE: Surgery to bone, %: (4) %
  SREs in patients with a prior history of SREs, %: (10) %
  Time to first SRE, median: 2.76 months
Randomized patients
  Cases of spinal cord compression: 4
  Patients with at least one skeletal-related event (SRE): 12%

## CO[C@H]1C[C@@H]2CC[C@@H](C)[C@@](O)(O2)C(=O)C(=O)N2CCCC[C@H]2C(=O)O[C@H]([C@H](C)C[C@@H]2CC[C@@H](OCCO)[C@H](OC)C2)CC(=O)[C@H](C)/C=C(\C)[C@@H](O)[C@@H](OC)C(=O)[C@H](C)C[C@H](C)/C=C/C=C/C=C/1C [everolimus]
Baseline
  C-terminal cross-lined telopeptides of type 1 collagen (CTx), median: 0.43 µg/L
  N-terminal propeptide of type 1 collagen (P1NP), median: 49.9 µg/L
Pts with Bone Metastases
  Post-Randomization SREs, %: (29) %
  Post-randomization SRE: External radiation therapy to bone, %: (25) %
  Post-randomization SRE: Pathologic fractures, %: (5) %
  Post-randomization SRE: Spinal cord compression, %: (6) %
  Post-randomization SRE: Surgery to bone, %: (8) %
  Time to first SRE, median: 2.53 months
Pts without Bone Metastases
  Post-Randomization SREs, %: (10) %
  Post-randomization SRE: External radiation therapy to bone, %: (7) %
  Post-randomization SRE: Pathologic fractures, %: (3) %
  Post-randomization SRE: Spinal cord compression, %: (2) %
  Post-randomization SRE: Surgery to bone, %: (2) %
  Time to first SRE, median: 4.27 months
Week 5
  C-terminal cross-lined telopeptides of type 1 collagen (CTx), median: 0.43 µg/L
  N-terminal propeptide of type 1 collagen (P1NP), median: 44.1 µg/L
[1]
  Cases of spinal cord compression: 5
  Incidence of post-randomization SREs: 34%
  Bone scan response (BSR) per IRC: 10%
Listed as Everolimus
  Bone scan response (BSR) per IRC: 10 (4, 19) %
[2]
  Post-randomization SRE: External radiation therapy to bone, %: (28) %
  Post-randomization SRE: Pathologic fractures, %: (5) %
  Post-randomization SRE: Spinal cord compression, %: (5) %
  Post-randomization SRE: Surgery to bone, %: (7) %
  SREs in patients with a prior history of SREs, %: (33) %
  Time to first SRE, median: 2.41 months
[3]
  Post-randomization SRE: External radiation therapy to bone, %: (23) %
  Post-randomization SRE: Pathologic fractures, %: (13) %
  Post-randomization SRE: Spinal cord compression, %: (6) %
  Post-randomization SRE: Surgery to bone, %: (9) %
  SREs in patients with a prior history of SREs, %: (36) %
  Time to first SRE, median: 4.27 months
Randomized patients
  Cases of spinal cord compression: 8
  Patients with at least one skeletal-related event (SRE): 14%
